Assay results from patent publication US9266883B2, “Ring-fused bicyclic pyridyl derivatives as FGFR4 inhibitors” (Novartis AG, priority 2013, dated 2016).
Read-outs that look alike come from different tables or passages of the source.

What was measured:
[1] = target: FGFR4 (GST-FGFR4(388-802)) (Homo sapiens (Human), UniProt P22455); experiment: In-vitro biochemical kinase assay for FGFR4 (Caliper microfluidic mobility shift)
Tel-FGFR4 = Tel-FGFR4 (Homo sapiens (Human), UniProt P22455); experiment: In vitro cellular kinase assay for FGFR4 (BaF3-Tel-FGFR4 cells, MSD capture ELISA of tyrosine phosphorylation); assay type: cell-based
[2] = read-out: Biochemical FGFR4 IC50
[3] = BaF3-Tel-FGFR4 cells, 1 hour incubation, read-out: Cellular BaF3 FGFR4 IC50
[4] = biochemical FGFR4 assay, read-out: Biochemical IC50
[5] = read-out: IC50 in the biochemical assay
[6] = Cellular BaF3 FGFR4 assay, read-out: Cellular IC50

Tel-FGFR4, sequence (P22455 other isoform, or with tags, fused parts or gaps): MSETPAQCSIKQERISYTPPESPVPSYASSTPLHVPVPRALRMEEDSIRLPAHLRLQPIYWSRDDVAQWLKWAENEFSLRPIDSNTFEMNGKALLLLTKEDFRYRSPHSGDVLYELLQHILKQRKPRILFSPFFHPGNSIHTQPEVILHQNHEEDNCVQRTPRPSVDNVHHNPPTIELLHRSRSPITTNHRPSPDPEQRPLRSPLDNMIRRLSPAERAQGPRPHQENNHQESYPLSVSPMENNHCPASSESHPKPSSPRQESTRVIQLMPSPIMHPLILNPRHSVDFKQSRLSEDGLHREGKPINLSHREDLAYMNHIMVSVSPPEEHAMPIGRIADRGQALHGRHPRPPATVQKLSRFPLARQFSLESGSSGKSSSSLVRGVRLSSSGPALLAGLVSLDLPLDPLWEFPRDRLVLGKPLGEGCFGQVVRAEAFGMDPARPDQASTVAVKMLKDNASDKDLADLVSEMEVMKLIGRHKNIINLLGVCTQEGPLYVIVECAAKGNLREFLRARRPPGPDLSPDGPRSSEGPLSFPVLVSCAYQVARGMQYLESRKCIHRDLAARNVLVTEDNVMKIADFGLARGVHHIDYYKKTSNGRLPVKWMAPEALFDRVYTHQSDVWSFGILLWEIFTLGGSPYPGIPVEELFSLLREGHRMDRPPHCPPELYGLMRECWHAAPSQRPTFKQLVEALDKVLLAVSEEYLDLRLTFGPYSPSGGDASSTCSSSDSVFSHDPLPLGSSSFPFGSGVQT
FGFR4 (GST-FGFR4(388-802)), sequence (P22455 388-802): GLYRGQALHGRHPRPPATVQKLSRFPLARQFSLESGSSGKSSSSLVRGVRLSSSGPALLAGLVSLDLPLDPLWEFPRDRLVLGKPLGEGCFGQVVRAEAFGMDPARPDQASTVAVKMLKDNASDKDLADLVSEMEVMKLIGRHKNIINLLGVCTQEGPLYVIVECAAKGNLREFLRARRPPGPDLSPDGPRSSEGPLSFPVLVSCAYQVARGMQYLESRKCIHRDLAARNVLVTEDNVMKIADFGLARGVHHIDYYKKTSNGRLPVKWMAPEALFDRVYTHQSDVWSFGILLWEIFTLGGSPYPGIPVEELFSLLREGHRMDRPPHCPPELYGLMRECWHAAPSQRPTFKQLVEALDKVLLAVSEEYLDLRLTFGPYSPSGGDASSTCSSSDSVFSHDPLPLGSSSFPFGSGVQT

Row | Structure (SMILES) | IC50 [1, 2] | IC50 [1, 4] | further results
1 | CN(C)CCOc1cc(NC(=O)N2CCOc3ccc([13CH]=O)nc32)ncc1C#N [Example 77, N-(5-cyano-4-(2-(dimethylamino)ethoxy)pyridin-2-yl)-6-form-^13C-yl-2H-pyrido[3,2-b][1,4]oxazine-4(3H)-carboxamide] | 43 nM |  | 
2 | CC(=O)N(C)Cc1cc2c(nc1C=O)N(C(=O)Nc1cc(OCc3cccs3)c(C#N)cn1)CCC2 [Example 239, N-(5-cyano-4-(thiophen-2-ylmethoxy)pyridin-2-yl)-7-formyl-6-((N-methylacetamido)methyl)-3,4-dihydro-1,8-naphthyridine-1(2H)-carboxamide] |  |  | IC50 (Tel-FGFR4; [3]): 19.6 nM
3 | CC(=O)N(C)Cc1cc2c(nc1C=O)N(C(=O)Nc1cc(OC(C)C)c(C#N)cn1)CCC2 [N-(5-cyano-4-isopropoxypyridin-2-yl)-7-formyl-6-((N-methylacetamido)methyl)-3,4-dihydro-1,8-naphthyridine-1(2H)-carboxamide] |  | 1.5 nM | 
4 | COCCNc1cc(NC(=O)N2CCCc3cc(-c4cccs4)c(C=O)nc32)ncc1C#N [Example 253, N-(5-cyano-4-((2-methoxyethyl)amino)pyridin-2-yl)-7-formyl-6-(thiophen-2-yl)-3,4-dihydro-1,8-naphthyridine-1(2H)-carboxamide] |  |  | IC50 (Tel-FGFR4; [3]): 37 nM
5 | COCC(C)Nc1cc(NC(=O)N2CCCc3cc(CN(C)C(C)=O)c(C=O)nc32)ncc1C#N (centres unmarked) [N-(5-cyano-4-((1-methoxypropan-2-yl)amino)pyridin-2-yl)-7-formyl-6-((N-methylacetamido)methyl)-3,4-dihydro-1,8-naphthyridine-1(2H)-carboxamide] |  | 0.8 nM | 
6 | O=Cc1nc2c(cc1F)CCCN2C(=O)Nc1ccc(C(F)(F)F)cn1 [Example 15, 6-fluoro-7-formyl-N-(5-(trifluoromethyl)pyridin-2-yl)-3,4-dihydro-1,8-naphthyridine-1(2H)-carboxamide] | 45 nM |  | 
7 | N#Cc1cnc(NC(=O)N2CCCc3cc(CO)c(C=O)nc32)cc1OCC1CNCCO1 (centres unmarked) [N-(5-cyano-4-(morpholin-2-ylmethoxy)pyridin-2-yl)-7-formyl-6-(hydroxymethyl)-3,4-dihydro-1,8-naphthyridine-1(2H)-carboxamide] |  | 350 nM | 
8 | Cc1ccc(NC(=O)N2CCOc3ccc(C=O)nc32)nc1 [Example 9, 6-formyl-N-(5-methylpyridin-2-yl)-2H-pyrido[3,2-b][1,4]oxazine-4(3H)-carboxamide] | 190 nM |  | 
9 | CC(C)S(=O)(=O)c1ccccc1Nc1nc(NC(=O)N2CCCc3ccc(C=O)nc32)ncc1Cl [Example 16, N-(5-chloro-4-((2-(isopropylsulfonyl)phenyl)amino)pyrimidin-2-yl)-7-formyl-3,4-dihydro-1,8-naphthyridine-1(2H)-carboxamide] | 0.2 nM |  | 
10 | COCCNc1cc(NC(=O)N2CCCc3cc(-n4cnc(C)n4)c(C=O)nc32)ncc1C#N [Example 260, N-(5-cyano-4-((2-methoxyethyl)amino)pyridin-2-yl)-7-formyl-6-(3-methyl-1H-1,2,4-triazol-1-yl)-3,4-dihydro-1,8-naphthyridine-1(2H)-carboxamide] | 14 nM |  | 
11 | Cc1cnc(NC(=O)N2CCCc3ccc(C=O)nc32)cc1C [Example 6, N-(4,5-dimethylpyridin-2-yl)-7-formyl-3,4-dihydro-1,8-naphthyridine-1(2H)-carboxamide] | 110 nM |  | 
12 | COCCOc1cc(NC(=O)N2CCCc3cc(CN4CCCC4=O)c(C=O)nc32)ncc1C#N [N-(5-cyano-4-(2-methoxyethoxyl)pyridin-2-yl)-7-formyl-6-((2-oxopyrrolidin-1-yl)methyl)-3,4-dihydro-1,8-naphthyridine-1(2H)-carboxamide] |  |  | IC50 [1, 5]: > 1000 nM
13 | Cc1cc2c(nc1C=O)N(C(=O)Nc1ccc(C(F)(F)F)cn1)CCC2 [Example 20, 7-formyl-6-methyl-N-(5-(trifluoromethyl)pyridin-2-yl)-3,4-dihydro-1,8-naphthyridine-1(2H)-carboxamide] | 68.5 nM |  | 
14 | CC(=O)N(C)Cc1cc2c(nc1C=O)N(C(=O)Nc1cc(NCC(C)(C)O)c(C#N)cn1)CCC2 [N-(5-cyano-4-((2-hydroxy-2-methylpropyl)amino)pyridin-2-yl)-7-formyl-6-((N-methylacetamido)methyl)-3,4-dihydro-1,8-naphthyridine-1(2H)-carboxamide] |  | 1.6 nM | 
15 | N#Cc1cnc(NC(=O)N2CCCc3ccc(C=O)nc32)cc1OC1CCOC1 (racemic) [Example 40, N-(5-cyano-4-((tetrahydrofuran-3-yl)oxy)pyridin-2-yl)-7-formyl-3,4-dihydro-1,8-naphthyridine-1(2H)-carboxamide] | 0.7 nM |  | 
16 | COCC(C)(C)Nc1cc(NC(=O)N2CCCc3cc(C(F)F)c(C=O)nc32)ncc1C#N [N-(5-cyano-4-((1-methoxy-2-methylpropan-2-yl)amino)pyridin-2-yl)-6-(difluoromethyl)-7-formyl-3,4-dihydro-1,8-naphthyridine-1(2H)-carboxamide] |  | 4.3 nM | 

Row | Structure (SMILES) | IC50 [1, 2] | IC50 [1, 4] | further results
17 | O=Cc1nc2c(cc1CO)CCCN2C(=O)Nc1nccc(O[C@H]2CCOC2)n1 [(S)-7-formyl-6-(hydroxymethyl)-N-(4-((tetrahydrofuran-3-yl)oxy)pyrimidin-2-yl)-3,4-dihydro-1,8-naphthyridine-1(2H)-carboxamide] |  |  | IC50 [1, 5]: > 1000 nM
18 | COc1cc(NC(=O)N2CCCc3cc(CN4CCN(C)CC4=O)c(C=O)nc32)ncc1C(F)(F)F [7-formyl-N-(4-methoxy-5-(trifluoromethyl)pyridin-2-yl)-6-((4-methyl-2-oxopiperazin-1-yl)methyl)-3,4-dihydro-1,8-naphthyridine-1(2H)-carboxamide] |  | 89.5 nM | 
19 | N#Cc1ccc(NC(=O)N2CCCc3cc(C(F)F)c(C=O)nc32)nc1 [Example 37, N-(5-cyanopyridin-2-yl)-6-(difluoromethyl)-7-formyl-3,4-dihydro-1,8-naphthyridine-1(2H)-carboxamide] | 19 nM |  | 
20 | CN(C)CC1CN(c2cc(NC(=O)N3CCCc4cc(CO)c(C=O)nc43)ncc2C#N)CCO1 (racemic) [Example 81, N-(5-cyano-4-(2-((dimethylamino)methyl)morpholino)pyridin-2-yl)-7-formyl-6-(hydroxymethyl)-3,4-dihydro-1,8-naphthyridine-1(2H)-carboxamide] |  |  | IC50 (Tel-FGFR4; [3]): 146 nM
21 | CNc1cc(NC(=O)N2CCCc3cc(CN(C)C(=O)CN(C)C)c(C=O)nc32)ncc1C#N [N-(5-cyano-4-(methylamino)pyridin-2-yl)-6-((2-(dimethylamino)-N-methylacetamido)methyl)-7-formyl-3,4-dihydro-1,8-naphthyridine-1(2H)-carboxamide] |  |  | IC50 (Tel-FGFR4; [6]): 11.3 nM
22 | COCCOc1nc(NC(=O)N2CCCc3cc(C(F)F)c(C=O)nc32)ncc1C#N [N-(5-cyano-4-(2-methoxyethoxyl)pyrimidin-2-yl)-6-(difluoromethyl)-7-formyl-3,4-dihydro-1,8-naphthyridine-1(2H)-carboxamide] |  | 28 nM | 
23 | N#Cc1cnc(NC(=O)N2CCCc3cc(CO)c(C=O)nc32)cc1NCCF [Example 88, N-(5-cyano-4-((2-fluoroethyl)amino)pyridin-2-yl)-7-formyl-6-(hydroxymethyl)-3,4-dihydro-1,8-naphthyridine-1(2H)-carboxamide] | 2.3 nM |  | 
24 | N#Cc1cnc(NC(=O)N2CCCc3cc(C(F)F)c(C=O)nc32)cc1OCC(F)(F)F [N-(5-cyano-4-(2,2,2-trifluoroethoxyl)pyridin-2-yl)-6-(difluoromethyl)-7-formyl-3,4-dihydro-1,8-naphthyridine-1(2H)-carboxamide] |  | 110 nM | 
25 | CN1CCC2(CCN(c3cc(NC(=O)N4CCCc5ccc(C=O)nc54)ncc3C#N)CC2)C1 [Example 28, N-(5-cyano-4-(2-methyl-2,8-diazaspiro[4.5]decan-8-yl)pyridin-2-yl)-7-formyl-3,4-dihydro-1,8-naphthyridine-1(2H)-carboxamide] | 3.4 nM |  | 
26 | CC(C)Oc1cc(NC(=O)N2CCCc3cc(C4CCOC4)c(C=O)nc32)ncc1C#N (racemic) [Example 264, N-(5-cyano-4-isopropoxypyridin-2-yl)-7-formyl-6-(tetrahydrofuran-3-yl)-3,4-dihydro-1,8-naphthyridine-1(2H)-carboxamide] | 1 nM |  | 
27 | N#Cc1cnc(NC(=O)N2CCCc3cc(C(F)F)c(C=O)nc32)cc1OCC1CNCCO1 (centres unmarked) [N-(5-cyano-4-(morpholin-2-ylmethoxy)pyridin-2-yl)-6-(difluoromethyl)-7-formyl-3,4-dihydro-1,8-naphthyridine-1(2H)-carboxamide] |  |  | IC50 (Tel-FGFR4; [6]): 10.8 nM
28 | CNc1cc(NC(=O)N2CCCc3cc(CN4CCN(C)CC4=O)c(C=O)nc32)ncc1C#N [N-(5-cyano-4-(methylamino)pyridin-2-yl)-7-formyl-6-((4-methyl-2-oxopiperazin-1-yl)methyl)-3,4-dihydro-1,8-naphthyridine-1(2H)-carboxamide] |  |  | IC50 (Tel-FGFR4; [6]): 3.7 nM
29 | O=Cc1nc2c(cc1CO)CCCN2C(=O)Nc1ccc(C(F)(F)F)cn1 [Example 18, 7-formyl-6-(hydroxymethyl)-N-(5-(trifluoromethyl)pyridin-2-yl)-3,4-dihydro-1,8-naphthyridine-1(2H)-carboxamide] | 98 nM |  | 
30 | CCc1cc(NC(=O)N2CCCc3cc(CO)c(C=O)nc32)ncc1C#N [N-(5-cyano-4-ethylpyridin-2-yl)-7-formyl-6-(hydroxymethyl)-3,4-dihydro-1,8-naphthyridine-1(2H)-carboxamide] |  | 960 nM | 
31 | CC(=O)N(C)Cc1cc2c(nc1C=O)N(C(=O)Nc1cc(O[C@H]3CCOC3)c(C#N)cn1)CCC2 [(S)-N-(5-cyano-4-((tetrahydrofuran-3-yl)oxy)pyridin-2-yl)-7-formyl-6-((N-methylacetamido)methyl)-3,4-dihydro-1,8-naphthyridine-1(2H)-carboxamide] |  | 0.4 nM | 
32 | CC(=O)N(C)Cc1cc2c(nc1C=O)N(C(=O)Nc1cc(OCC(F)(F)F)c(C#N)cn1)CCC2 [N-(5-cyano-4-(2,2,2-trifluoroethoxyl)pyridin-2-yl)-7-formyl-6-((N-methylacetamido)methyl)-3,4-dihydro-1,8-naphthyridine-1(2H)-carboxamide] |  | 0.5 nM | 
